In this assay the test system is BDF1 mice, P388 leukemia ip, median survival T/C. As to the kind of experiment: NCI In Vivo Anticancer Drug Screen. Data for tumor model P388 Leukemia (intraperitoneal) in B6D2F1 (BDF1) mice. The conditions noted are these: endpoint: median survival time, higher = longer survival. A digest of the protocol: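 Survival ratio, drug arm over vehicle arm, in mice with a transplanted tumour.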

Where [1] appears, read: dose: 100.0 mg/kg/injection, schedule: Q01DX001 (ip), vehicle: saline with Tween-80.
The mark [2] stands for this setting: dose: 200.0 mg/kg/injection, schedule: Q01DX001 (ip), vehicle: saline with Tween-80.
The mark [3] stands for this setting: dose: 400.0 mg/kg/injection, schedule: Q01DX001 (ip), vehicle: saline with Tween-80.
Setting [4] is: dose: 50.0 mg/kg/injection, schedule: Q01DX009 (ip), vehicle: saline with Tween-80.
Where [5] appears, read: dose: 100.0 mg/kg/injection, schedule: Q04DX003 (ip), vehicle: saline with Tween-80.
The mark [6] stands for this setting: dose: 200.0 mg/kg/injection, schedule: Q04DX003 (ip), vehicle: saline with Tween-80.
The mark [7] stands for this setting: dose: 400.0 mg/kg/injection, schedule: Q04DX003 (ip), vehicle: saline with Tween-80.
The mark [8] stands for this setting: dose: 100.0 mg/kg/injection, schedule: Q04DX002 (ip), vehicle: saline with Tween-80.
[9] abbreviates: dose: 200.0 mg/kg/injection, schedule: Q04DX002 (ip), vehicle: saline with Tween-80.

“And” between values parts separate entries of the source, which are not always exact repeats. Identical values can stand only once. Inconclusive results and toxic doses are left out.

Regarding `CC1OC(OC2CCCc3ccccc32)CC(N)C1O` (centres undefined), the T/C is, setting by setting: (dose: 0.25 mg/kg/injection, schedule: Q01DX009 (ip), vehicle: water) 91 % of control and 94 % of control; (dose: 0.5 mg/kg/injection, schedule: Q01DX009 (ip), vehicle: water) 101 % of control and 115 % of control and 103 % of control; (dose: 1.0 mg/kg/injection, schedule: Q01DX009 (ip), vehicle: water) 110 % of control [middle of 4 runs]; (dose: 2.0 mg/kg/injection, schedule: Q01DX009 (ip), vehicle: water) 101 % of control and 102 % of control and 105 % of control; (dose: 4.0 mg/kg/injection, schedule: Q01DX009 (ip), vehicle: water) 109 % of control [middle of 5 runs]; (dose: 8.0 mg/kg/injection, schedule: Q01DX009 (ip), vehicle: water) 106 % of control and 111 % of control. Further, the T/C (dose: 16.0 mg/kg/injection, schedule: Q01DX009 (ip), vehicle: water) was 98 % of control and 108 % of control; the T/C (dose: 32.0 mg/kg/injection, schedule: Q01DX009 (ip), vehicle: water) is 121 % of control.
Take `CC(C)=CC=O`: the T/C by setting is: under setting [1], 100 % of control; under setting [2], 96 % of control; under setting [3], 100 % of control.
Turning to `Cc1c(C(=O)O)nc(/C=C/C(Cl)(Cl)Cl)[nH]c1=O`, the T/C was 102 % of control (dose: 25.0 mg/kg/injection, schedule: Q04DX003 (ip), vehicle: Klucel (hydroxypropylcellulose) (HPC)); 100 % of control (dose: 50.0 mg/kg/injection, schedule: Q04DX003 (ip), vehicle: Klucel (hydroxypropylcellulose) (HPC)); 115 % of control (dose: 100.0 mg/kg/injection, schedule: Q04DX003 (ip), vehicle: Klucel (hydroxypropylcellulose) (HPC)); 103 % of control (dose: 200.0 mg/kg/injection, schedule: Q04DX003 (ip), vehicle: Klucel (hydroxypropylcellulose) (HPC)); 116 % of control (dose: 400.0 mg/kg/injection, schedule: Q04DX003 (ip), vehicle: Klucel (hydroxypropylcellulose) (HPC)).
Turning to `CCN(CC)CC(C)Nc1ccc(C)c2sc3ccccc3c(=O)c12` (centres undefined), the T/C reads like this: (dose: 33.0 mg/kg/injection, schedule: Q04DX003 (ip), vehicle: saline sonified) 118 % of control; (dose: 44.0 mg/kg/injection, schedule: Q01DX009 (ip), vehicle: saline) 159 % of control; (dose: 66.0 mg/kg/injection, schedule: Q01DX009 (ip), vehicle: saline) 200 % of control and 209 % of control; (dose: 100.0 mg/kg/injection, schedule: Q01DX009 (ip), vehicle: saline) 190 % of control; (dose: 112.5 mg/kg/injection, schedule: Q04DX003 (ip), vehicle: saline sonified) 154 % of control; (dose: 300.0 mg/kg/injection, schedule: Q04DX003 (ip), vehicle: saline sonified) 163 % of control.
`COP(=O)(O)/C(C)=N/NS(=O)(=O)c1ccc(C)cc1`: the T/C (dose: 25.0 mg/kg/injection, schedule: Q01DX009 (ip), vehicle: other) was 100 % of control; the T/C (dose: 50.0 mg/kg/injection, schedule: Q01DX009 (ip), vehicle: other) is 103 % of control; the T/C (dose: 100.0 mg/kg/injection, schedule: Q01DX009 (ip), vehicle: other) was 100 % of control; the T/C (dose: 200.0 mg/kg/injection, schedule: Q01DX009 (ip), vehicle: other) was 100 % of control; the T/C (dose: 400.0 mg/kg/injection, schedule: Q01DX009 (ip), vehicle: other) is 102 % of control.
For `CC(C)C(=O)c1ccc([N+](=O)[O-])o1`, the T/C was 115 % of control under setting [4]; 111 % of control (dose: 100.0 mg/kg/injection, schedule: Q01DX009 (ip), vehicle: saline with Tween-80); 107 % of control under setting [5]; 109 % of control (dose: 200.0 mg/kg/injection, schedule: Q01DX009 (ip), vehicle: saline with Tween-80); 116 % of control under setting [6]; 107 % of control (dose: 400.0 mg/kg/injection, schedule: Q01DX009 (ip), vehicle: saline with Tween-80). Besides, the T/C under setting [7] is 109 % of control.
In the case of `Cc1cc(N(C)C)ccc1/C=C/c1ccnc2ccccc12`, the T/C is 117 % of control under setting [8] and 107 % of control under setting [9].
In the case of `COc1ccc(C=Nc2ccccc2)cc1`, the T/C is 100 % of control under setting [5], 100 % of control under setting [6] and 100 % of control under setting [7].
In the case of `C1=CCC(COC(c2ccccc2)(c2ccccc2)c2ccccc2)C(COC(c2ccccc2)(c2ccccc2)c2ccccc2)C1` (centres undefined), the T/C is, setting by setting: under setting [1], 93 % of control; under setting [2], 96 % of control; under setting [3], 88 % of control.
As to `Nc1cc(C(=O)Nc2ccc(C3=NCCN3)cc2)ccc1C(=O)Nc1ccc(C2=NCCN2)cc1`, the T/C is, setting by setting: (dose: 1.4 mg/kg/injection, schedule: Q01DX009 (ip), vehicle: saline with Tween-80) 158 % of control; (dose: 2.2 mg/kg/injection, schedule: Q01DX009 (ip), vehicle: saline with Tween-80) 154 % of control; (dose: 3.3 mg/kg/injection, schedule: Q01DX009 (ip), vehicle: saline with Tween-80) 154 % of control and 200 % of control; (dose: 5.0 mg/kg/injection, schedule: Q01DX009 (ip), vehicle: saline with Tween-80) 191 % of control; (dose: 8.0 mg/kg/injection, schedule: Q01DX009 (ip), vehicle: saline with Tween-80) 230 % of control; (dose: 12.0 mg/kg/injection, schedule: Q01DX009 (ip), vehicle: saline with Tween-80) 230 % of control. Besides, the T/C (dose: 12.5 mg/kg/injection, schedule: Q01DX009 (ip), vehicle: saline with Tween-80) is 230 % of control; the T/C (dose: 13.0 mg/kg/injection, schedule: Q04DX003 (ip), vehicle: saline with Tween-80) is 170 % of control; the T/C (dose: 20.0 mg/kg/injection, schedule: Q04DX003 (ip), vehicle: saline with Tween-80) is 208 % of control; the T/C (dose: 25.0 mg/kg/injection, schedule: Q01DX009 (ip), vehicle: saline with Tween-80) was 230 % of control; the T/C (dose: 30.0 mg/kg/injection, schedule: Q04DX003 (ip), vehicle: saline with Tween-80) is 250 % of control and 181 % of control; the T/C (dose: 44.0 mg/kg/injection, schedule: Q04DX003 (ip), vehicle: saline with Tween-80) is 272 % of control. For the same compound, the T/C under setting [4] is 92 % of control; the T/C (dose: 66.0 mg/kg/injection, schedule: Q04DX003 (ip), vehicle: saline with Tween-80) was 229 % of control and 272 % of control; the T/C under setting [5] was 166 % of control and 204 % of control; the T/C (dose: 150.0 mg/kg/injection, schedule: Q04DX003 (ip), vehicle: saline with Tween-80) is 100 % of control; the T/C under setting [6] was 100 % of control.
Regarding `COC(=O)C12OCC34C(CC5C(C)=C(O)C(=O)CC5(C)C3C(O)C1O)OC(=O)C(OC(=O)CC(C)C(C)C)C24` (centres undefined), the T/C (dose: 2.0 mg/kg/injection, schedule: Q01DX009 (ip), vehicle: saline + alcohol) was 156 % of control; the T/C (dose: 4.0 mg/kg/injection, schedule: Q01DX009 (ip), vehicle: saline + alcohol) is 176 % of control; the T/C (dose: 7.0 micrograms/kg/injection, schedule: Q01DX009 (ip), vehicle: saline + alcohol) is 100 % of control; the T/C (dose: 15.0 micrograms/kg/injection, schedule: Q01DX009 (ip), vehicle: saline + alcohol) was 95 % of control and 119 % of control; the T/C (dose: 27.5 micrograms/kg/injection, schedule: Q01DX009 (ip), vehicle: saline) is 120 % of control; the T/C (dose: 31.0 micrograms/kg/injection, schedule: Q01DX009 (ip), vehicle: saline + alcohol) was 107 % of control and 113 % of control. The T/C is 115 % of control and 122 % of control (dose: 62.0 micrograms/kg/injection, schedule: Q01DX009 (ip), vehicle: saline + alcohol); 150 % of control (dose: 440.0 micrograms/kg/injection, schedule: Q01DX009 (ip), vehicle: saline); 123 % of control (dose: 500.0 micrograms/kg/injection, schedule: Q01DX009 (ip), vehicle: saline + alcohol); 163 % of control (dose: 1000.0 micrograms/kg/injection, schedule: Q01DX009 (ip), vehicle: saline + alcohol); 168 % of control (dose: 2000.0 micrograms/kg/injection, schedule: Q01DX009 (ip), vehicle: saline + alcohol); 163 % of control (dose: 4000.0 micrograms/kg/injection, schedule: Q01DX009 (ip), vehicle: saline + alcohol).
For the compound `Cc1n[nH]c(=O)c2c3ccccc3nn12`, the T/C is 103 % of control under setting [8]; 110 % of control under setting [9]; 107 % of control (dose: 400.0 mg/kg/injection, schedule: Q04DX002 (ip), vehicle: saline with Tween-80).

The values are drawn from PubChem BioAssay AID328 (DTP/NCI, 2004).
